We go through 20 molecules from article PMC7464201, “Synthesis and Cytotoxic Activity of Novel C-23-Modified Asiatic Acid Derivatives” (Molecules, 2020).

Data set [1] concerns human ovarian (SKOV-3) cancer cell line. Kind of data set: MTT cytotoxicity assay, SKOV-3. Format: cell-based. The note with it: MTT; for IC50: Homo sapiens, SK-OV-3, 72 h, six concentrations, mean ± SD of three independent experiments. As to the method:
(§1) To establish a SAR of the C-3 (R2) and C-23 (R1) of the AA derivatives, new compounds were subjected to MTT assays to evaluate their in-vitro antiproliferative activities against ovarian (SKOV-3) and colon (HCT-116) cancer cell lines, the IC50 values (the concentration that inhibits 50% of cell growth) of which are summarized in Table 1. Doxorubicin was used as the positive drug.
(§2) HCT116, SKOV-3, A549, A2780, HepG2, HL-60 and MCF-7 cells were incubated in DMEM with 10% heat-inactivated FBS in a humidified atmosphere of 5.0% CO2 at 37 °C. The in-vitro cytotoxicity of AA derivatives was determined using MTT assay. A 100-μL volume of culture medium at a concentration of 3 × 10^4 cell/mL was added to 96-well plate wells, which were maintained in a humidified atmosphere of 5.0% CO2 at 37 °C. After 24 h, 10 μL solution of AA derivatives and doxorubicin dissolved in DMSO and phophate buffered saline (PBS) and then diluted with DMEM under a concentration gradient, was added in the wells for final concentrations of 100, 10, 1, 0.1, 0.01, 0.001 μM of compounds in HCT116 and SKOV-3 cells and 125, 25, 5, 1, 0.2, 0.04 μM in A549, A2780, HepG2, HL-60 and MCF-7 cells. After 72 h incubation in a humidified atmosphere of 5.0% CO2 at 37 °C, 20 μl MTT solution (5 mg/mL) was added into each well and the cells were incubated. After 4 h, 100 μL HCl aqueous solution (0.01 M) with 10% SDS and 5% isobutanol was added into each well to dissolve the precipitated formazan and the absorbance was read at 570 nm on Thermo Scientific Varioskan Flash plate reader. All IC50 values were averaged from three independent experiments.
In general terms: Formazan colour is commonly taken as a measure of viable cells.

Data set [2] concerns human colon (HCT-116) cancer cell line. Nature of the data set: MTT cytotoxicity assay, HCT116. To be noted: Homo sapiens, HCT-116; MTT, 72 h, six concentrations, mean ± SD of three independent experiments. It counts as cell-based. Here is the method: as §1, §2

For orientation: IC50 means the concentration needed to halve the response being measured. High values mean a need for much substance, low ones inhibition by little substance.

For the molecule `CO[C@@H]1C[C@@]2(C)[C@@H](CC[C@]3(C)[C@@H]2CC=C2[C@@H]4[C@@H](C)[C@H](C)CC[C@]4(C(=O)NCc4ccccc4)CC[C@]23C)[C@](C)(C=O)C1=O` [Compound 5, α-Methoxy-3,23-Dioxo-Urs-12-Ene-28-Benzylamide], the figures for the IC50 in data set [1] and in data set [2] were over 100 µM and 26 ± 6.68 µM, respectively.
With `C#CCNC(=O)[C@@]1(C)[C@@H]2CC[C@]3(C)[C@H](CC=C4[C@@H]5[C@@H](C)[C@H](C)CC[C@]5(C(=O)NCc5ccccc5)CC[C@]43C)[C@@]2(C)C[C@@H](OC)[C@@H]1OC(C)=O` [Compound 14e, α-Methoxy-3β-Acetoxy-Urs-12-Ene-28-Benzyl Amide-23-Propargylamide], the IC50 in data set [1] and in data set [2] was over 100 µM each time.
As for `COC(=O)C(C)NC(=O)C1(C)C(O)C(OC)CC2(C)C1CCC1(C)C2CC=C2C3C(C)C(C)CCC3(C(=O)NCc3ccccc3)CCC21C` [Compound 13f, N-(2α-Methoxy-3β-Hydroxy-Urs-12-Ene-28-Benzylamide-23-Oyl)-L-Alanine Methyl Ester], the IC50 amounted to 3.09 ± 1.54 µM in data set [1] and 4.35 ± 1.05 µM in data set [2].
Consider `CO[C@@H]1C[C@]2(C)[C@H]3CC=C4[C@@H]5[C@@H](C)[C@H](C)CC[C@]5(C(=O)NCc5ccccc5)CC[C@@]4(C)[C@]3(C)CC[C@H]2[C@](C)(C=O)[C@H]1O` [Compound 6, α-Methoxy-3β-Hydroxy-23-Oxo-Urs-12-Ene-28-Benzylamide], for which the IC50 in data set [2] was 8.46 ± 1.64 µM.
In data set [2], `CO[C@@H]1C[C@@]2(C)[C@@H](CC[C@]3(C)[C@@H]2CC=C2[C@@H]4[C@@H](C)[C@H](C)CC[C@]4(C(=O)NCc4ccccc4)CC[C@]23C)[C@](C)(C(=O)N(C)C)[C@H]1O` [Compound 13j, α-Methoxy-3β-Hydroxy-Urs-12-Ene-28-Benzyl Amide-23-Dimethylamide] had an IC50 of 9.6 ± 4.58 µM.
As to `COC(=O)C(C)NC(=O)C1(C)C(OC(C)=O)C(OC)CC2(C)C1CCC1(C)C2CC=C2C3C(C)C(C)CCC3(C(=O)NCc3ccccc3)CCC21C` [Compound 14f, N-(2α-Methoxy-3β-Acetoxy-Urs-12-Ene-28-Benzylamide-23-oyl)-L-Alanine Methyl Ester], the concentration for half-maximal inhibition (IC50) in data set [1] was over 100 µM; in data set [2] it was over 50 µM.
With `COc1cccc2c1C(=O)c1c(O)c3c(c(O)c1C2=O)C[C@@](O)(C(=O)CO)C[C@@H]3O[C@H]1C[C@H](N)[C@H](O)[C@H](C)O1` [Doxorubicin, reference compound], the figures for the IC50 in data set [1] and in data set [2] were 0.08 ± 0.01 µM and 0.03 ± 0.02 µM, respectively.
In data set [2], `CCOC(=O)CCCNC(=O)[C@@]1(C)[C@@H]2CC[C@]3(C)[C@H](CC=C4[C@@H]5[C@@H](C)[C@H](C)CC[C@]5(C(=O)NCc5ccccc5)CC[C@]43C)[C@@]2(C)C[C@@H](OC)[C@@H]1O` [Compound 13i, N-(2α-Methoxy-3β-Hydroxy-Urs-12-Ene-28-Benzylamide-23-Oyl)-4-Aminobutyric Ethyl Ester] showed an IC50 of 15.2 ± 1.99 µM.
The same measure, in the same setting: the same measure for `CNC(=O)[C@@]1(C)[C@@H]2CC[C@]3(C)[C@H](CC=C4[C@@H]5[C@@H](C)[C@H](C)CC[C@]5(C(=O)NCc5ccccc5)CC[C@]43C)[C@@]2(C)C[C@@H](OC)[C@@H]1OC(C)=O` [Compound 14b, α-Methoxy-3β-Acetoxy-Urs-12-Ene-28-Benzyl Amide-23-Methylamide]: 34.2 ± 7.87 µM.
On to `COC(=O)C(Cc1ccccc1)NC(=O)C1(C)C(O)C(OC)CC2(C)C1CCC1(C)C2CC=C2C3C(C)C(C)CCC3(C(=O)NCc3ccccc3)CCC21C` [Compound 13h, N-(2α-Methoxy-3β-Hydroxy-Urs-12-Ene-28-Benzylamide-23-oyl)-L-Phenylalanine Methyl Ester], for which, in data set [1], the IC50 was over 100 µM and the “cytotoxic activity against SKOV-3 cell line (in words)” value was “not active”. In addition, the IC50 in data set [2] was over 50 µM.
With `CO[C@@H]1C[C@]2(C)[C@H]3CC=C4[C@@H]5[C@@H](C)[C@H](C)CC[C@]5(C(=O)NCc5ccccc5)CC[C@@]4(C)[C@]3(C)CC[C@H]2[C@](C)(C=O)[C@H]1OC(C)=O` [Compound 12, α-Methoxy-3β-Acetoxy-23-Oxo-Urs-12-Ene-28-Benzyl Amide], the results for the IC50 in data set [1] and in data set [2] were over 100 µM and 6.69 ± 1.15 µM, respectively.
In data set [2], `CNC(=O)[C@@]1(C)[C@@H]2CC[C@]3(C)[C@H](CC=C4[C@@H]5[C@@H](C)[C@H](C)CC[C@]5(C(=O)NCc5ccccc5)CC[C@]43C)[C@@]2(C)C[C@@H](OC)[C@@H]1O` [Compound 13b, α-Methoxy-3β-Hydroxy-Urs-12-Ene-28-Benzyl Amide-23-Methylamide] showed an IC50 of 7.45 ± 3.53 µM.
For `CO[C@@H]1C[C@@]2(C)[C@@H](CC[C@]3(C)[C@@H]2CC=C2[C@@H]4[C@@H](C)[C@H](C)CC[C@]4(C(=O)NCc4ccccc4)CC[C@]23C)[C@](C)(C(=O)O)[C@H]1O` [Compound 7, α-Methoxy-3β-Hydroxy-Urs-12-Ene-28-Benzylamide-23-Oic Acid], the results for the IC50 in data set [1] and in data set [2] were 31.9 ± 2.59 µM and 16.7 ± 1.68 µM, respectively.
`CO[C@@H]1C[C@@]2(C)[C@@H](CC[C@]3(C)[C@@H]2CC=C2[C@@H]4[C@@H](C)[C@H](C)CC[C@]4(C(=O)NCc4ccccc4)CC[C@]23C)[C@](C)(C(=O)NC(C)C)[C@H]1O` [Compound 13d, α-Methoxy-3β-Hydroxy-Urs-12-Ene-28-Benzyl Amide-23-Isopropylamide] came in with a 50% inhibitory concentration (IC50) in data set [2] of 8.57 ± 3.04 µM.
Take `CO[C@@H]1C[C@@]2(C)[C@@H](CC[C@]3(C)[C@@H]2CC=C2[C@@H]4[C@@H](C)[C@H](C)CC[C@]4(C(=O)NCc4ccccc4)CC[C@]23C)[C@](C)(C(=O)NC(C)C)[C@H]1OC(C)=O` [Compound 14d, α-Methoxy-3β-Acetoxy-Urs-12-Ene-28-Benzyl Amide-23-Isopropylamide]: the IC50 in data set [1] and in data set [2] was over 100 µM throughout.
Turning to `CCNC(=O)[C@@]1(C)[C@@H]2CC[C@]3(C)[C@H](CC=C4[C@@H]5[C@@H](C)[C@H](C)CC[C@]5(C(=O)NCc5ccccc5)CC[C@]43C)[C@@]2(C)C[C@@H](OC)[C@@H]1O` [Compound 13c, α-Methoxy-3β-Hydroxy-Urs-12-Ene-28-Benzyl Amide-23-Ethylamide], in data set [2], the midpoint of inhibition, the IC50, lay at 11 ± 4.28 µM.
With `CCNC(=O)[C@@]1(C)[C@@H]2CC[C@]3(C)[C@H](CC=C4[C@@H]5[C@@H](C)[C@H](C)CC[C@]5(C(=O)NCc5ccccc5)CC[C@]43C)[C@@]2(C)C[C@@H](OC)[C@@H]1OC(C)=O` [Compound 14c, α-Methoxy-3β-Acetoxy-Urs-12-Ene-28-Benzyl Amide-23-Ethylamide], the 50% inhibitory concentration (IC50) in data set [1] and in data set [2] was over 100 µM each time.
As for `COC(=O)C(Cc1ccccc1)NC(=O)C1(C)C(OC(C)=O)C(OC)CC2(C)C1CCC1(C)C2CC=C2C3C(C)C(C)CCC3(C(=O)NCc3ccccc3)CCC21C` [Compound 14h, N-(2α-Methoxy-3β-Acetoxy-Urs-12-Ene-28-Benzylamide-23-Oyl)-L-Phenylalanine Methyl Ester], the IC50 in data set [1] and in data set [2] was over 100 µM throughout.
As to `COC(=O)C(NC(=O)C1(C)C(O)C(OC)CC2(C)C1CCC1(C)C2CC=C2C3C(C)C(C)CCC3(C(=O)NCc3ccccc3)CCC21C)C(C)C` [Compound 13g, N-(2α-Methoxy-3β-Hydroxy-Urs-12-Ene-28-Benzylamide-23-Oyl)-L-Valine Methyl Ester], the IC50 in data set [2] stood at 9.69 ± 1.64 µM.
The same measure, in the same setting: under `CO[C@@H]1C[C@@]2(C)[C@@H](CC[C@]3(C)[C@@H]2CC=C2[C@@H]4[C@@H](C)[C@H](C)CC[C@]4(C(=O)NCc4ccccc4)CC[C@]23C)[C@](C)(C(N)=O)[C@H]1O` [Compound 13a, α-Methoxy-3β-Hydroxy-Urs-12-Ene-28-Benzyl Amide-23-Amide] stands 7.45 ± 1.62 µM.
